According to US4473557A, “3"-Deoxystreptomycin production thereof and pharmaceutical compositions containing same” (Zaidan Hojin Biseibutsu Kagaku Kenkyu Kai, priority 1982, dated 1984):
Converted amounts (≈) assume the structure as drawn. Where two headings read alike, the source gives them in different places.

Experiments:
resistant bacteria = conditions: Kokai No. 105154/77; Journal of Antibiotics Vol. 29, 978 (1976); cited from earlier work
Escherichra coli ML 1630 = assay: Minimum inhibitory concentration, serial dilution on nutrient agar; assay type: cell-based; conditions: 37° C., 17 hours
Description: (§1) Minimum inhibitory concentrations (mcg/ml) of streptomycin and of the parent 3"-deoxydihydrostreptomycin were also estimated in the same manner as above for the comparison purpose and are shown in Table 1 below.

[1] = test system: Escherichia coli JR66/W677; assay: as above; assay type: cell-based; conditions: 37° C., 17 hours
Description: as §1

Escherichia coli K-12 = assay: as above; assay type: cell-based
Description: as §1

[2] = test system: Pseudomonas aeruginosa A3; assay: as above; assay type: cell-based
Description: as §1

[3] = test system: Bacillus subtilis NRRL B558; assay: as above; assay type: cell-based
Description: as §1

[4] = test system: Mycobacterium smegmatis 607; assay: as above; assay type: cell-based
Description: as §1

Salmonella typhi T-63 = assay: as above; assay type: cell-based; conditions: Salmonella enterica, 17 h
Description: as §1

Escherichia coli W 677 = assay: as above; assay type: cell-based
Description: as §1

[5] = test system: Staphylococcus aureus 209 P; assay: as above; assay type: cell-based
Description: as §1

Sarcia lutea 1001 = assay: as above; assay type: cell-based; conditions: 17 h
Description: as §1

[6] = test system: Pseudomonas aeruginosa No. 12; assay: as above; assay type: cell-based
Description: as §1

Escherichia coli ML 1629 = assay: as above; assay type: cell-based
Description: as §1

[7] = test system: Escherichia coli C600 R135; assay: as above; assay type: cell-based; conditions: C600R135, 17 h
Description: as §1

[8] = test system: streptomycin-resistant bacteria; assay: Activity against streptomycin-resistant bacteria; assay type: cell-based; conditions: variety of streptomycin-resistant bacteria
Description: as §1

ICR mice = assay: Acute toxicity by intravenous injection in mice; conditions: dosage of 4 mg/kg (so in the source)
in vivo = conditions: mouse, iv
[9] = K12, Escherichia coli K-12, nutrient agar, 37° C., 17 hours, read-out: MIC.
[10] = Pseudomonas aeruginosa A3, nutrient agar, 37° C., 17 hours, read-out: MIC.
[11] = NRRLB558, Bacillus subtilis NRRL B558, nutrient agar, 37° C., 17 hours, read-out: MIC.
[12] = Mycolicibacterium smegmatis, Mycobacterium smegmatis 607, nutrient agar, 37° C., 17 hours, read-out: MIC.
[13] = W677, Escherichia coli W 677, nutrient agar, 37° C., 17 hours, read-out: MIC.
[14] = Staphylococcus aureus, 209P, 17 h
[15] = Pseudomonas aeruginosa No. 12, nutrient agar, 37° C., 17 hours, read-out: MIC.

| SMILES | MIC (Escherichra coli ML 1630) [µg/mL] | MIC [1] [µg/mL] | MIC (Escherichia coli K-12; [9]) [µg/mL] | MIC [2, 10] [µg/mL] | MIC [3, 11] [µg/mL] | MIC [4, 12] [µg/mL] | MIC (Salmonella typhi T-63) [µg/mL] | MIC (Escherichia coli W 677; [13]) [µg/mL] | MIC [5, 14] [µg/mL] | MIC (Sarcia lutea 1001) [µg/mL] | MIC [6, 15] [µg/mL] | MIC (Escherichia coli ML 1629; Escherichia coli, ML1629, 17 h) [µg/mL] | MIC [7] [µg/mL] | further results |
| --- | --- | --- | --- | --- | --- | --- | --- | --- | --- | --- | --- | --- | --- | --- |
| CNC1CC(O)C(CO)OC1OC1C(OC2C(O)C(O)C(NC(=N)N)C(O)C2NC(=N)N)OC(C)C1(O)CO (stereo not shown) [3"-Deoxydihydrostreptomycin, 3"-deoxydihydrostreptomycin] | 1.56 (≈ 2.75 µM) | 12.5 (≈ 22 µM) | 1.56 (≈ 2.75 µM) | 12.5 (≈ 22 µM) | 1.56 (≈ 2.75 µM) | 0.78 (≈ 1.37 µM) | 3.12 (≈ 5.5 µM) | 1.56 (≈ 2.75 µM) | 3.12 (≈ 5.5 µM) | 3.12 (≈ 5.5 µM) | 25 (≈ 44 µM) | 3.12 (≈ 5.5 µM) | 3.12 (≈ 5.5 µM) | activity against the resistant bacteria (resistant bacteria): active against the resistant bacteria |
| CNC1CC(O)C(CO)OC1OC1C(OC2C(O)C(O)C(NC(=N)N)C(O)C2NC(=N)N)OC(C)C1(O)C=O (stereo not shown) [3"-Deoxystreptomycin, 3"-deoxystreptomycin] | 3.12 (≈ 5.52 µM) | 12.5 (≈ 22.1 µM) | 1.56 (≈ 2.76 µM) | 6.25 (≈ 11.1 µM) | 1.56 (≈ 2.76 µM) | 0.78 (≈ 1.38 µM) | 0.78 (≈ 1.38 µM) | 1.56 (≈ 2.76 µM) | – | 1.56 (≈ 2.76 µM) | 25 (≈ 44.2 µM) | – | 3.12 (≈ 5.52 µM) | activity against streptomycin-resistant bacteria [8]: active against a variety of streptomycin-resistant bacteria; survival for more than 14 days (ICR mice): all the treated mice survived for more than 14 days; MIC ([5]; Staphylococcus aureus 209 P, nutrient agar, 37° C., 17 hours, read-out: MIC.): 3.12 µg/mL (≈ 5.52 µM); MIC (Escherichia coli ML 1629; ML1629, Escherichia coli ML 1629, nutrient agar, 37° C., 17 hours, read-out: MIC.): 1.56 µg/mL (≈ 2.76 µM); LD50 at 336 h (in vivo): > 200 mg/kg |
| [H]/N=C(/N)N[C@H]1[C@H](O)[C@@H](O)[C@H](O[C@@H]2O[C@@H](C)[C@](O)(C=O)[C@H]2O[C@@H]2O[C@@H](CO)[C@H](O)[C@@H](O)[C@@H]2NC)[C@@H](N/C(N)=N\[H])[C@@H]1O [Streptomycin, streptomycin] | > 100 | > 100 | – | – | – | – | 25 (≈ 43 µM) | – | 3.12 (≈ 5.36 µM) | 1.56 (≈ 2.68 µM) | – | 100 (≈ 172 µM) | 50 (≈ 86 µM) | MIC (Escherichia coli K-12; Escherichia coli, K12, 17 h): 1.56 µg/mL (≈ 2.68 µM); MIC ([2]; Pseudomonas aeruginosa, A3, 17 h): 6.25 µg/mL (≈ 10.7 µM); MIC ([3]; Bacillus subtilis, NRRLB558, 17 h): 0.78 µg/mL (≈ 1.34 µM); MIC ([4]; Mycolicibacterium smegmatis, 607, 17 h): 1.56 µg/mL (≈ 2.68 µM); MIC (Escherichia coli W 677; Escherichia coli, W677, 17 h): 1.56 µg/mL (≈ 2.68 µM); MIC ([6]; Pseudomonas aeruginosa, NO.12, 17 h): 25 µg/mL (≈ 43 µM) |
